The source of these data is patent US20140171475A1, “ANIMAL ECTOPARASITE-CONTROLLING AGENT” (SUMITOMO CHEMICAL COMPANY, LIMITED, priority 2011, published 2014).

In assay [1] the test system is Haemaphysalis longicornis (young ticks) on dog (beagle). Nature of the assay: Dropping application against dog-infested ticks. The assay is classed as in vivo. Particulars: dropping application 20 mg/kg. On the procedure: The previous day of a dropping application, 100 test ticks (Haemaphysalis longicornis, young ticks) were deposited on a dog (beagle). Before the dropping application, infested ticks were counted.
The present […] compound (13) (1.5 g) was dissolved in diethylene glycol monoethyl ether (6.0 g) to prepare a test solution. Said test solution was directly dropped on the skin of the neck and back of the dog while pushing aside fur thereon at a rate of 0.1 ml per 1 kg of the dog's body weight (dose amount: 20 mg/kg). This is referred to as a test group. On the other hand, diethylene glycol monoethyl ether alone was applied dropwise to a placebo group.
Two (2) days after the application, the number of living ticks, which were infesting the dogs, was examined. When the examination was completed, all infested ticks were removed from the dogs.
Both of […] (14) days and 28 days after the application, 100 test ticks (Haemaphysalis longicornis, young ticks) were repeatedly deposited on a dog (beagle) respectively. Two (2) days after the repeated deposition, the number of living ticks, which were infesting the dogs, was examined respectively. When each of the examination was completed, all infested ticks were removed from the dogs.
(§1) The infestation rate and control rate were calculated by the following formulae: […]
(§2) Method of calculating infestation rate and control rate at the initial stage (2 days) after the application:
(§3) Infestation rate (%) at X days after application=(number of living ticks at X days/number of living ticks before application)×100
Control rate (%) at X days after application {(infestation rate of test group before application infestation rate of test group at X days)/infestation rate of test group before application}×100
Method of calculating infestation rate and control rate at both 16 days and 30 days after the application:
Infestation rate (%) at X days after application=(number of living ticks at X days/number of living ticks repeatedly deposited)×100 […]

The test system is the same in assay [2]. Nature of the assay: Oral administration against dog-infested ticks. In kind it is in vivo. Conditions: oral gelatin capsule 40 mg/kg. On the procedure:
The previous day of an oral administration, 100 test ticks (Haemaphysalis longicornis, young ticks) were deposited on a dog (beagle). Before the oral administration, infested ticks were counted.
A gelatin capsule in which the present benzylamide compound (13) was filled into a gelatin capsule so that the amount of the present benzylamide compound […] administered was 40 mg per 1 kg of the dog's body weight was orally administered to the dog conpulsively. This is referred to as a test group. On the other hand, a geratin capsule alone was orally administered to a placebo group.
Two (2) days after the oral administration, the number of living ticks, which were infesting the dogs, was examined. When the examination was completed, all infested ticks were removed from the dogs.
as §1, §2, §3
Control rate (%) at X days after application {(infestation rate of test group before application−infestation rate of test group at X days)/infestation rate of test group before application}×100 […]

In the case of `O=C(NCc1cc(C2=NOC(c3cc(Cl)cc(Cl)c3)(C(F)(F)F)C2)ccc1Cl)C1CC1` (stereo not shown) [Compound (13)], in assay [1] (2 days), the “Tick control rates (%) at X days after the application, X = 2 (days)” value is 35%. In addition, the “Tick control rates (%) at X days after the application, X = 16 (days)” value in assay [1] (16 days (re-infested at 14 days)) was found to be 100%. Further, the “Tick control rates (%) at X days after the application, X = 30 (days)” value in assay [1] (30 days (re-infested at 28 days)) was 100%. Further, in assay [2], the “Tick control rates (%) at 2 days after the administration” value was 91%.
